Assay results taken from patent US7220768B2, “Isoxazole-containing thiourea inhibitors useful for treatment of varicella zoster virus” (Wyeth Holdings Corp., priority 2003, dated 2007).
Converted amounts (≈) assume the structure as drawn.

What was measured:
[1] = test system: HSV; assay: HSV Antiviral (ELISA) Assay; assay type: cell-based, herpes simplex virus; details: Vero cells
Experimental: HSV Antiviral (ELISA) Assay. Vero cells (ATCC #CCL-81) are plated on 96-well tissue culture plates at 3.5×10^4 cells per 100 μl tissue culture DMEM (Dulbecco's modified Eagle media) supplemented with 2% fetal bovine serum (FBS) in each well. After overnight incubation, inhibition was determined by comparing the fluorescence obtained in absence of compound to that obtained in the presence of compound.

[2] = test system: HCMV; assay: Human cytomegalovirus yield / microtiter plate assay; assay type: cell-based; details: human foreskin fibroblasts; for IC50: Human betaherpesvirus 5, Fibroblast
Experimental: Yield Assay. Monolayer cultures of human foreskin fibroblasts are infected with HCMV wild-type virus, typically at a multiplicity of infection equal to 0.2, in the presence of inhibitors compound (varying concentrations). At three days post-infection, total virus produced in these cultures (i.e. virus yield) is assessed by harvesting and titering the virus in 12-well plates of cultured human foreskin fibroblasts (done in the absence of inhibitors). Plaques are quantified at 2 weeks post-infection. An inhibitor of HCMV is identified by the reduction in titer of virus yield in the presence, compared to the titer in the absence of compound. In this assay, the relative anti-HCMV activity of an inhibitor is typically determined by calculating the IC50 or IC90 value, that is, the amount of compound required to reduce the virus yield by 50% or 90%, respectively. Table 2 describes IC50 data for compounds tested against HCMV.
Microtiter Plate Assay. Ninety-six well plate cultures of human foreskin fibroblasts are infected in the presence of inhibitor compound with a HCMV recombinant mutant virus whose genome contains the prokaryotic beta-glucuronidase gene (Jefferson, R. A., S. M. Burgess, and D. Hirsh. 1986. Beta-glucuronidase from Escherichia coli as a gene fusion marker. Proc. Natl. Acad. Sci. USA 83:8447–8451) whose expression is controlled by a viral promoter. An example of such a virus is RV145 [T. R. Jones; V. P. Muzithras, and Y. Gluzman. 1991, Replacement mutagenesis of the human cytomegalovirus genome: US10 and US11 gene products are nonessential, J. Virol. 65:5860–5872]. Since it is under the control of a viral promoter, beta-glucuronidase expression is an indirect indicator of growth and replication of HCMV in this assay. At 96 hours post-infection, the infected cell lysates are prepared (using 50 mM sodium phosphate [pH 7.0] containing 0.1% Triton X-100 and 0.1% sarkosyl) and assayed for beta-glucuronidase activity using a substrate for the enzyme which when cleaved yields either a product which can be measured colorimetrically in a spectrophotometer or fluorescently in a microfluorimeter. Examples of such substrates are p-nitrophenyl-beta-D-glucuronide and methylumbelliferylglucuronide, respectively. The presence of an antiviral compound is indicated by the reduced expression of the HCMV genome resident beta-glucuronidase gene, compared to the absence of inhibitor. […] Data from this assay generated using varying amounts of inhibitor compound is also used to estimate the IC50 of an inhibitor compound.

[3] = test system: RSV; assay: RSV antiviral assay (Table 2); assay type: cell-based; details: for IC50: human respiratory syncytial virus
[4] = test system: VZV; assay: VZV antiviral assay (Table 2); assay type: cell-based, varicella zoster virus; details: for IC50: Human alphaherpesvirus 3
[5] = MTS assay (Table 2); assay type: cell-based

| SMILES | IC50 [1] | IC50 [2] | IC50 [3] | IC50 [4] | IC50 [5] | IC50 HSV [1] | IC50 CMV [2] | IC50 RSV [3] | IC50 VZV [4] | IC50 MTS [5] |
| --- | --- | --- | --- | --- | --- | --- | --- | --- | --- | --- |
| CC(NC(=S)Nc1ccc(-c2nocc2CO)cc1)c1ccc(F)cc1 (stereo not shown) [Example 9, 1-[1-(4-Fluorophenyl)ethyl]-3-[4-(4-hydroxymethylisoxazol-3-yl)phenyl]thiourea] | > 10 µg/mL | 5.7 µg/mL (≈ 15.3 µM) | 7.2 µg/mL (≈ 19.4 µM) | 2 µg/mL (≈ 5.38 µM) | > 15 µg/mL | – | – | – | – | – |
| CC(NC(=S)Nc1ccc(-c2nocc2Cc2ccccc2)cc1)c1ccc(F)cc1 (stereo not shown) [Example 10, 1-[4-(4-Benzylisoxazol-3-yl)phenyl]-3-[1-(4-fluorophenyl)ethyl]thiourea] | > 10 µg/mL | 2.4 µg/mL (≈ 5.56 µM) | > 10 µg/mL | 0.086 µg/mL (≈ 0.199 µM) | > 15 µg/mL | – | – | – | – | – |
| CC(NC(=S)Nc1ccc(-c2nocc2Cc2ccc(F)cc2)cc1)c1ccc(F)cc1 (stereo not shown) [Example 11, 1-{4-[4-(4-Fluorobenzyl)isoxazol-3-yl]phenyl}-3-[1-(4-fluorophenyl)ethyl]thiourea] | 2.1 µg/mL (≈ 4.67 µM) | 1.8 µg/mL (≈ 4 µM) | 4.7 µg/mL (≈ 10.5 µM) | 0.16 µg/mL (≈ 0.356 µM) | 1.9 µg/mL (≈ 4.23 µM) | – | – | – | – | – |
| CC(NC(=S)Nc1ccc(-c2nocc2-c2ccccc2)cc1)c1ccc(F)cc1 (stereo not shown) [Example 12, 1-[1-(4-Fluoropheny)ethyl]-3-[4-(4-phenylisoxazol-3-yl)phenyl]thiourea] | – | – | – | – | – | >10 µg/mL | >10 µg/mL | >10 µg/mL | 0.37 µg/mL (≈ 0.886 µM) | >15 µg/mL |
| CC(NC(=S)Nc1ccc(-c2nocc2C(C)(C)C)cc1)c1ccc(F)cc1 (stereo not shown) [Example 13, 1-[4-(4-tert-Butylisoxazol-3-yl)phenyl]-3-[1-(4-fluorophenyl)ethyl]thiourea] | 2.3 µg/mL (≈ 5.79 µM) | 1.3 µg/mL (≈ 3.27 µM) | 2.1 µg/mL (≈ 5.28 µM) | 0.23 µg/mL (≈ 0.579 µM) | 1.5 µg/mL (≈ 3.77 µM) | – | – | – | – | – |
| CC(NC(=S)Nc1ccc(-c2nocc2-c2ccccc2F)cc1)c1ccc(F)cc1 (stereo not shown) [Example 14, 1-[1-(4-Fluorophenyl)ethyl]-3-{4-[4-(2-fluorophenyl)isoxazol-3-yl]phenyl}thiourea] | > 10 µg/mL | > 10 µg/mL | > 10 µg/mL | 5.4 µg/mL (≈ 12.4 µM) | > 15 µg/mL | – | – | – | – | – |
| CC(NC(=S)Nc1ccc(-c2conc2-c2cccnc2)cc1)c1ccc(F)cc1 (stereo not shown) [Example 15, N-[1-(4-Fluorophenyl)ethyl]-N′-{4-[3-(3-pyridinyl)-4-isoxazolyl]phenyl}thiourea] | 3.1 µg/mL (≈ 7.41 µM) | > 10 µg/mL | > 10 µg/mL | 0.19 µg/mL (≈ 0.454 µM) | 14 µg/mL (≈ 33.5 µM) | – | – | – | – | – |
| CC(NC(=S)Nc1ccc(-c2conc2-c2ccnc3ccccc23)cc1)c1ccc(F)cc1 (stereo not shown) [Example 16, N-[1-(4-Fluorophenyl)ethyl]-N′-{4-[3-(4-quinolinyl)-4-isoxazolyl]phenyl}thiourea] | 3.1 µg/mL (≈ 6.62 µM) | 0.8 µg/mL (≈ 1.71 µM) | 2.3 µg/mL (≈ 4.91 µM) | 0.08 µg/mL (≈ 0.171 µM) | 6.5 µg/mL (≈ 13.9 µM) | – | – | – | – | – |
| CC(NC(=S)Nc1ccc(-c2conc2-c2ccncc2)cc1)c1ccc(F)cc1 (stereo not shown) [Example 17, N-[1-(4-Fluorophenyl)ethyl]-N′-{4-[3-(4-pyridinyl)-4-isoxazolyl]phenyl}thiourea] | 3.7 µg/mL (≈ 8.84 µM) | 0.93 µg/mL (≈ 2.22 µM) | 1.5 µg/mL (≈ 3.58 µM) | 0.14 µg/mL (≈ 0.335 µM) | 5.5 µg/mL (≈ 13.1 µM) | – | – | – | – | – |
| CC(NC(=S)Nc1ccc(-c2conc2-c2ccc(N)cc2)cc1)c1ccc(F)cc1 (stereo not shown) [Example 18, N-{4-[3-(4-Aminophenyl)-4-isoxazolyl]phenyl}-N′-[1-(4-fluorophenyl)ethyl]thiourea] | > 10 µg/mL | 2 µg/mL (≈ 4.62 µM) | > 10 µg/mL | 0.05 µg/mL (≈ 0.116 µM) | 13 µg/mL (≈ 30.1 µM) | – | – | – | – | – |
| CC(NC(=S)Nc1ccc(-c2conc2-c2csnn2)cc1)c1ccc(F)cc1 (stereo not shown) [Example 19, N-[1-(4-Fluorophenyl)ethyl]-N′-{4-[3-(1,2,3-thiadiazol-4-yl)-4-isoxazolyl]phenyl}thiourea] | > 10 µg/mL | 0.9 µg/mL (≈ 2.12 µM) | > 10 µg/mL | 0.13 µg/mL (≈ 0.306 µM) | > 15 µg/mL | – | – | – | – | – |
| CC(NC(=S)Nc1ccc(-c2conc2-c2ccccn2)cc1)c1ccc(F)cc1 (stereo not shown) [Example 20, N-[1-(4-Fluorophenyl)ethyl]-N′-{4-[3-(2-pyridinyl)-4-isoxazolyl]phenyl}thiourea] | > 10 µg/mL | > 10 µg/mL | > 10 µg/mL | 0.18 µg/mL (≈ 0.43 µM) | > 15 µg/mL | – | – | – | – | – |
| CC(NC(=S)Nc1ccc(-c2conc2-c2ccc(N(C)C)cc2)cc1)c1ccc(F)cc1 (stereo not shown) [Example 21, N-(4-{3-[4-(Dimethylamino)phenyl]-4-isoxazolyl}phenyl)-N′-[1-(4-fluorophenyl)ethyl]thiourea] | > 10 µg/mL | 9.3 µg/mL (≈ 20.2 µM) | > 10 µg/mL | 0.34 µg/mL (≈ 0.738 µM) | > 15 µg/mL | – | – | – | – | – |
| CC(NC(=S)Nc1ccc(-c2conc2-c2ccc(O)cc2)cc1)c1ccc(F)cc1 (stereo not shown) [Example 22, N-[1-(4-Fluorophenyl)ethyl]-N′-{4-[3-(4-hydroxyphenyl)-4-isoxazolyl]phenyl}thiourea] | > 10 µg/mL | 2.5 µg/mL (≈ 5.77 µM) | 9.9 µg/mL (≈ 22.8 µM) | 0.61 µg/mL (≈ 1.41 µM) | > 15 µg/mL | – | – | – | – | – |
| CC(NC(=S)Nc1ccc(-c2conc2-c2ccccc2)cc1)c1ccc(F)cc1 (stereo not shown) [Example 23, N-[1-(4-Fluorophenyl)ethyl]-N′-[4-(3-phenyl-4-isoxazolyl)phenyl]thiourea] | > 10 µg/mL | > 10 µg/mL | > 10 µg/mL | 0.89 µg/mL (≈ 2.13 µM) | > 15 µg/mL | – | – | – | – | – |
| CC(NC(=S)Nc1ccc(-c2conc2-c2ncc[nH]2)cc1)c1ccc(F)cc1 (stereo not shown) [Example 24, N-[1-(4-Fluorophenyl)ethyl]-N′-{4-[3-(1 H-imidazol-2-yl)-4-isoxazolyl]phenyl}thiourea] | > 10 µg/mL | > 10 µg/mL | > 10 µg/mL | 1 µg/mL (≈ 2.45 µM) | > 15 µg/mL | – | – | – | – | – |
| CC(NC(=S)Nc1ccc(-c2conc2-c2ccccc2O)cc1)c1ccc(F)cc1 (stereo not shown) [Example 25, N-[1-(4-Fluorophenyl)ethyl]-N′-{4-[3-(2-hydroxyphenyl)-4-isoxazolyl]phenyl}thiourea] | > 10 µg/mL | 7.9 µg/mL (≈ 18.2 µM) | > 10 µg/mL | 1.9 µg/mL (≈ 4.38 µM) | > 15 µg/mL | – | – | – | – | – |
